In publication PMC7497679, “Structure-based design, synthesis, and evaluation of the biological activity of novel phosphoroorganic small molecule IAP antagonists” (Investigational New Drugs, 2020):
Where two headings read alike, the source gives them in different places. Peptide text beside a SMILES is read from it.

Molecular target: T1, XIAP BIR3 domain (Homo sapiens, UniProt P98170)
T1 construct: fluorescent probe 4 and the XIAP BIR3 domain (Sino Biological, Beijing, China) were used for all measurements; purchased Sino Biological, Beijing, China
T1 sequence (P98170 252-356 limits assumed): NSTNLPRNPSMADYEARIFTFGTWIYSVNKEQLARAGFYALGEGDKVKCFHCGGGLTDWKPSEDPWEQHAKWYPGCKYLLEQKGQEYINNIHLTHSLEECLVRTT
Assay: Fluorescence polarization inhibition (competition) assay
Type: binding
Conditions: for inhibition at 50 µM: 0.5 h
Experimental: The fluorescence polarization assay was performed at r.t. in Corning 384-well black, polystyrene flat bottom plates (Corning, NY, USA) on a Synergy H4 Hybrid Reader (BioTek, Bad Friedrichshall, Germany). For fluorescence polarization measurements, (milipolarization units, mP) 484/20 nm excitation and 528/20 nm emission filters were selected. Phosphate buffer (pH 7.5) supplemented with γ-globulin (100 µg/mL) and NaN3 (0.02% w/v), fluorescent probe 4 and the XIAP BIR3 domain (Sino Biological, Beijing, China) were used for all measurements. All experiments were performed in duplicate. The obtained fluorescence polarization assay data were analyzed with Prism 5.0 Software (GraphPad Software, San Diego, ca.).
After a 15 min incubation at r.t., fluorescent probe 4 (2 nM) was added. The values were measured 30 min after the moment the probe was added. The assay was performed in phosphate buffer with a final DMSO concentration of 1.4% (v/v). […] In order to evaluate the quality and precision of the performed screening assay, we determined the Z´ factor as described by Zhang et al.. The obtained fluorescence polarization values were used to determine the percent inhibition, which was plotted as a function of the protein concentration. The EC50 and Ki values were calculated with GraphPad software (log(agonist) vs. response (variable slope) model) in combination with the web tool developed by Nikolovska-Coleska et al..
Fluorescence polarization inhibition assay and data analysis for 41m and 42m compounds was performed as described in the Material and Methods section of the manuscript. Briefly, 50 nM solution of the BIR3 XIAP protein in polarization buffer was added into phosphoroorganic compound solution (from 50 μM to 0.0537 nM). After 15 min incubation at r.t. the fluorescent probe 4 (2 nM) was added.
The values were read after 30 minutes from the moment the probe was added. The obtained fluorescence polarization values were used to determine the percentage of inhibition which was plotted as a function of the protein concentration (Supplementary Figure S4).
(1 picture or pasted object on this page, not shown here)

[1] = XIAP BIR3 50 nM, fluorescent probe 4 2 nM, read-out: EC50
[2] = antagonist 50 µM, inhibition of protein-probe interaction
[3] = XIAP BIR3 50 nM, fluorescent probe 4 2 nM
[4] = XIAP BIR3 50 nM, fluorescent probe 4 2 nM, read-out: log EC50 (converted)

| Structure (SMILES) | EC50 [1] [µM] | inhibition at 50 µM [2] [%] | Ki [3] [µM] | EC50 [4] [µM] | log EC50 [3] [µM] | % Inh (50 µM) [2] [%] |
| --- | --- | --- | --- | --- | --- | --- |
| CC(C)[C@H](NC(=O)[C@H](C)N)C(=O)N1CCC[C@H]1C(=O)N[C@@H](Cc1c[nH]c2ccccc12)C(=O)O [Compound 3, H2N-Ala-Val-Pro-Trp-OH, reference compound] (H-AVPW-OH) | 0.34 |  |  |  |  |  |
| CN[C@@H](C)C(=O)N[C@H](C(=O)N1CCC[C@H]1C(=O)NCP(=O)(C(C)(C)C)C(C)(C)C)C(C)C [Compound 5] | 29.6 | 63.2 | 14.7 | 29.6 |  |  |
| CN[C@@H](C)C(=O)N[C@H](C(=O)N1CCC[C@H]1C(=O)NCP(=O)(C(C)(C)C)C(C)(C)C)C1CCCCC1 [Compound 6] | 19.9 | 72 | 9.87 | 19.9 |  |  |
| CN[C@@H](C)C(=O)N[C@H](C(=O)N1CCC[C@H]1C(=O)NCP(=O)(C(C)C)C(C)C)C(C)C [Compound 7] |  | 32 |  |  |  |  |
| CN[C@@H](C)C(=O)N[C@H](C(=O)N1CCC[C@H]1C(=O)NCP(=O)(C(C)C)C(C)C)C1CCCCC1 [Compound 8] |  | 41.3 |  |  |  |  |
| CN[C@@H](C)C(=O)N[C@H](C(=O)N1CCC[C@H]1C(=O)NCP(=O)(C1CCCCC1)C1CCCCC1)C(C)C [Compound 9] |  | ~25 |  |  |  |  |
| CN[C@@H](C)C(=O)N[C@H](C(=O)N1CCC[C@H]1C(=O)NCP(=O)(C1CCCCC1)C1CCCCC1)C1CCCCC1 [Compound 10] |  | ~25 |  |  |  |  |
| CN[C@@H](C)C(=O)N[C@H](C(=O)N1CCC[C@H]1C(=O)NCP(=O)(c1ccccc1)c1ccccc1)C(C)C [Compound 11] | 29.3 | 63.6 | 14.5 | 29.4 |  |  |
| CN[C@@H](C)C(=O)N[C@H](C(=O)N1CCC[C@H]1C(=O)NCP(=O)(c1ccccc1)c1ccccc1)C1CCCCC1 [Compound 12] | 26.3 |  | 13 |  | 1.420 ± 0.051 | 67.1 |
| CN[C@@H](C)C(=O)N[C@H](C(=O)N1CCC[C@H]1C(=O)NCP(=O)(c1ccc(C)cc1)c1ccc(C)cc1)C(C)C [Compound 15, (S)-N-((di-p-tolylphosphoryl)methyl)-1-((S)-3-methyl-2-((S)-2-(methylamino)propanamido)butanoyl)pyrrolidine-2-carboxamide] | 30.8 | 61.6 | 15.3 | 30.8 |  |  |
| CN[C@@H](C)C(=O)N[C@H](C(=O)N1CCC[C@H]1C(=O)NCP(=O)(c1ccc(C)cc1)c1ccc(C)cc1)C1CCCCC1 [Compound 16, (S)-1-((S)-2-cyclohexyl-2-((S)-2-(methylamino)propanamido)acetyl)-N-((di-p-tolylphosphoryl)methyl)pyrrolidine-2-carboxamide] | 40.3 | 57 | 20 | 40.4 |  |  |
| CN[C@@H](C)C(=O)N[C@H](C(=O)N1CCC[C@H]1C(=O)NC(C)P(=O)(c1ccc(C)cc1)c1ccc(C)cc1)C1CCCCC1 (stereo partly drawn) [Compound 17, (2S)-1-((S)-2-cyclohexyl-2-((S)-2-(methylamino)propanamido)acetyl)-N-(1-(di-p-tolylphosphoryl)ethyl)pyrrolidine-2-carboxamide] | 19.3 | 74 | 9.55 | 19.3 |  |  |
| CN[C@@H](C)C(=O)N[C@H](C(=O)N1CCC[C@H]1C(=O)NCP(=O)(c1ccccc1C)c1ccccc1C)C(C)C [Compound 18, (S)-N-((di-o-tolylphosphoryl)methyl)-1-((S)-3-methyl-2-((S)-2-(methylamino)propanamido)butanoyl)pyrrolidine-2-carboxamide] | 29.3 | 62 | 14.5 | 29.2 |  |  |
| CN[C@@H](C)C(=O)N[C@H](C(=O)N1CCC[C@H]1C(=O)NCP(=O)(c1ccccc1C)c1ccccc1C)C1CCCCC1 [Compound 19, (S)-1-((S)-2-cyclohexyl-2-((S)-2-(methylamino)propanamido)acetyl)-N-((di-o-tolylphosphoryl)methyl)pyrrolidine-2-carboxamide] | 28 | 66.2 | 13.9 | 28.1 |  |  |
